From patent publication US10683297B2 (Sunshine Lake Pharma Co., Ltd., priority 2017, dated 2020)

Columns and labels:
[1] = Compound stability in human liver microsomes; assay type: in vitro ADME; conditions: for half-life at 5 μM: human liver microsomes 0.5 mg protein/mL, compound 5 μM, NADPH 1.0 mM, pH 7.4, 37° C., read-out: Human T1/2; for CLint scaled at 5 μM: liver microsomes, pH 7.4, in vivo CLint extrapolated from human liver microsome incubation
Experimental: (§1) The LC/MS/MS system used in the analysis consists of an Agilent 1200 Series vacuum degasser, binary pump, well-plate autosampler, thermostatted column compartment, the Agilent G6430 Triple Quadrupole Mass Spectrometer with an electrosprayionization (ESI) source. Quantitative analysis was carried out using MRM mode. The parameters for MRM transitions are in the Table A.
(§2) An Agilent XDB-C18, 2.1×30 mm, 3.5 μM column was used for the analysis. 5 μL of the samples were injected. Analysis condition: The mobile phase was 0.1% formic acid in water (A) and 0.1% formic acid in methanol (B). The flow rate was 0.4 mL/min. And the gradient of Mobile phase was in the Table B.
(§3) Alternatively, an Agilent 6330 series LC/MS/MS spectrometer equipped with G1312A binary pumps, a G1367A autosampler and a G1314C UV detector were used in the analysis. An ESI source was used on the LC/MS/MS spectrometer. The analysis was done in positive ion mode as appropriate and the MRM transition for each analyte was optimized using standard solution. A Capcell MP-C18 100×4.6 mm I.D., 5 uM column (Phenomenex, Torrance, Calif., USA) was used during the analysis. The mobile phase was 5 mM ammonia acetate, 0.1% MeOH in water (A): 5 mM ammonia acetate, 0.1% MeOH in acetonitrile (B) (70/30, v/v). The flow rate was 0.6 mL/min. Column was maintained at ambient temperature. 20 μL of the samples were injected.
(§4) Human or rat liver microsomes incubations were conducted in duplicate in polypropylene tubes. The typical incubation mixtures consisted of human or rat liver microsomes (0.5 mg protein/mL), compounds of interest (5 μM) and NADPH (1.0 mM) in a total volume of 200 μL potassium phosphate buffer (PBS, 100 mM, pH 7.4). Compounds were dissolved in DMSO and diluted with PBS such that the final concentration of DMSO was 0.05%. The enzymatic reactions were commenced with the addition of […] after a 3-min preincubation and incubated in a water bath open to the air at 37° C. Reactions were terminated at various time points (0, 5, 10, 15, 30, 60 min) by adding equal volume of ice-cold acetonitrile. The samples were stored at […] until LC/MS/MS assays.
(§5) The concentrations of compounds in the incubation mixtures of human or rat liver microsomes were determined by a LC/MS/MS method. The ranges of the linearity in the concentration range were determined for each tested compounds.
(§6) A parallel incubation was performed using denatured microsomes as the negative control, and reactions were terminated at various time points (0, 15, 60 min) after incubation at 37° C.
(§7) Dextromethorphan (70 μM) was selected as the positive control, and reactions were terminated at various time points (0, 5, 10, 15, 30, 60 min) after incubation at 37° C. Both positive and negative control samples were included in each assay to ensure the integrity of the microsomal incubation system.
(§8) The concentrations of compounds in human or rat liver microsome incubations were plotted as a percentage of the relevant zero time point control for each reaction. The in vivo CLint were extrapolated (ref.: Naritomi, Y.; Terashita, S.; Kimura, S.; Suzuki, A.; Kagayama, A.; and Sugiyama, Y.; Prediction of human hepatic clearance from in vivo animal experiments and in vitro metabolic studies with liver microsomes from animals and humans. Drug Metab. Dispos., 2001, 29: 1316-1324).

JAK1 (h) = target: T1, JAK1 (h) (Homo sapiens, UniProt P23458); assay: JAK1 (h) kinase assay; assay type: biochemical; conditions: [γ-33P-ATP] 10 μM or KM values; 40 minutes at room temperature
T1 construct: purchased Millipore UK Ltd (assays performed there as a service)
T1 sequence (P23458 whole entry): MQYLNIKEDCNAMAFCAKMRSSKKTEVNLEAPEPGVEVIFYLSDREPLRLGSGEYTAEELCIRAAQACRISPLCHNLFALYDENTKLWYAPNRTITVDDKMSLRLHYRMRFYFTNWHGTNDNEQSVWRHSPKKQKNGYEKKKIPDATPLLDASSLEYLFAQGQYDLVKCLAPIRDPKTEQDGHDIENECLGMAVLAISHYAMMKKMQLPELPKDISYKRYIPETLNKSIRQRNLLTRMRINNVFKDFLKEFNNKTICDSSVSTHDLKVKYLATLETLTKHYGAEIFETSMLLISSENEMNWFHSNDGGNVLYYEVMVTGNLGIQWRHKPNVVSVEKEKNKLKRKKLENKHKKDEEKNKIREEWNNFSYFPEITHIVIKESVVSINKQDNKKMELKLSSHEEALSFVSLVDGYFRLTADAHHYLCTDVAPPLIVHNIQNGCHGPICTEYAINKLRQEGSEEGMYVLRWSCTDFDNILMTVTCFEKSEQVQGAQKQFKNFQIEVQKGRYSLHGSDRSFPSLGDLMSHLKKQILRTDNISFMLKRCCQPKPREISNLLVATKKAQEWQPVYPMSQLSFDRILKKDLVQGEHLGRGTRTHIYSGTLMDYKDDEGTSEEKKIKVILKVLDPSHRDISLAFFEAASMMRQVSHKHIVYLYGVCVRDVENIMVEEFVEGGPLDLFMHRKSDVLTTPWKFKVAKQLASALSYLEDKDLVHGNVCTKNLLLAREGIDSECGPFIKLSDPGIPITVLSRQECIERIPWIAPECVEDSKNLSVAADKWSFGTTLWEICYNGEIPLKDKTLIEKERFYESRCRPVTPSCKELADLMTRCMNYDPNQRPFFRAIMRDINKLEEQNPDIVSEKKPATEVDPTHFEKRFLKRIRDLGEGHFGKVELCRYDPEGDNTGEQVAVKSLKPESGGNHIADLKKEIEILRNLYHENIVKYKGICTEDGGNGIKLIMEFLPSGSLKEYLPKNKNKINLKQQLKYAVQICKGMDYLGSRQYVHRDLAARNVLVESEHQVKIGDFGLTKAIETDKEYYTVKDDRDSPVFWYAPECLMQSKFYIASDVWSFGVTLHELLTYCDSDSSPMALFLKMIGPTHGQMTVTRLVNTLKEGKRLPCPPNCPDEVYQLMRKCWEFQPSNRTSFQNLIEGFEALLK
Experimental: The above assay procedure can be used to determine the IC50 for inhibition and/or the inhibition constant, Ki. […] The IC50 value is estimated by preparing a 10 point curve using a ½ log dilution series (for example, a typical curve may be prepared using the following compound concentrations: 3 μM, 1 μM, 0.3 μM, 0.1 μM, 0.03 μM, 0.01 μM, 0.003 μM, 0.001 μM, 0.0003 μM and 0 μM).
JAK1 (h) is incubated with 20 mM Tris/HCl pH 7.5, 0.2 mM EDTA, 500 μM […], 10 mM MgAcetate and [γ-^33P-ATP] […] The reaction is initiated by the addition of the MgATP mix. After incubation for 40 minutes at room temperature, the reaction is stopped by the addition of 3% phosphoric acid solution. 10 μL of the reaction is then spotted onto a P30 filtermat and washed three times for 5 minutes in 75 mM phosphoric acid and once in methanol prior to drying and scintillation counting.
The kinase assays described herein were performed at Millipore UK Ltd, Dundee Technology Park, Dundee DD2 1SW, UK.

[2] = Compound stability in rat liver microsomes; assay type: in vitro ADME; conditions: for CLint scaled at 5 μM: liver microsomes, pH 7.4, in vivo CLint extrapolated from rat liver microsome incubation; for half-life at 5 μM: rat liver microsomes 0.5 mg protein/mL, compound 5 μM, NADPH 1.0 mM, pH 7.4, 37° C., read-out: Rat T1/2
Experimental: as §1, §2, §3, §4, §5, §6, §7, §8

[3] = Pharmacokinetics after intravenous and oral administration in rats; assay type: in vivo
Experimental: as §1, §2, §3
The compounds disclosed herein are assessed in pharmacokinetic studies in mice, rats, dogs or monkeys. The compounds are administered as a water solution, 2% HPMC+1% TWEEN®80 in water solution, 5% DMSO+5% solutol in saline, 4% MC suspension or capsule. For the intravenous administration, the animals are generally given at about 0.5, 0.6, 1 or 2 mg/kg dose. For the oral (p.o.) dosing, mice and rats are generally given 5 or 10 mg/kg dose, and dogs and monkeys are generally given 10 mg/kg dose. The blood samples (0.3 mL) are drawn at 0.25, 0.5, 1.0, 2.0, 3.0, 4.0, 6.0, 8.0, 12 and 24 h time points or 0.083, 0.25, 0.5, 1.0, 2.0, 4.0, 6.0, 8.0 and 24 h time points and centrifuged at 3,000 or 4000 rpm for 2 to 10 min. The plasma solutions are collected, and stored at […] until analyzed by LC/MS/MS as described above.

[4] = rat, plasma, iv dosing, dose 1 mg/kg (Ex. 9: 0.6, Ex. 18: 0.5, Ex. 50: 0.96 mg/kg)

Q: For `CC(C)(O)Cc1cnc2cc(Nc3ncc(Cl)c(NC4CCN(c5ccc(C#N)nn5)CC4)n3)ccn12` [Example 80, 6-(4-((5-chloro-2-((3-(2-hydroxy-2-methylpropyl)imidazo[1,2-a]pyridin-7-yl)amino)pyrimidin-4-yl)amino)piperidin-1-yl)pyridazine-3-carbonitrile], which half-life at 5 μM [1] is on record?
A: The half-life at 5 μM was 40.7 min.

Q: And the CLint scaled at 5 μM [1]?
A: The CLint scaled at 5 μM was 42.7 mL/min/kg.

Q: What about the IC50 (JAK1 (h)) of the same molecule?
A: Its IC50 is 0.6 nM.

Q: What about the CLint scaled at 5 μM [2] of the same molecule?
A: Its CLint scaled at 5 μM is 131 mL/min/kg.

Q: And the half-life at 5 μM [2]?
A: The half-life at 5 μM was 19 min.

Q: Which half-life at 5 μM [1] does the source give for `Cc1nnc2cc(Nc3ncc(Cl)c(NC4CCN(c5ccc(C#N)nn5)CC4)n3)ccn12` [Example 20, 6-(4-((5-chloro-2-((3-methyl-[1,2,4]triazolo[4,3-a]pyridin-7-yl)amino)pyrimidin-4-yl)amino)piperidin-1-yl)pyridazine-3-carbonitrile] here?
A: Its half-life at 5 μM is 153 min.

Q: And the CLint scaled at 5 μM [1]?
A: Its CLint scaled at 5 μM is 11.3 mL/min/kg.

Q: And the IC50 (JAK1 (h))?
A: The IC50 was 0.5 nM.

Q: What about the CLint scaled at 5 μM [2] of the same molecule?
A: The CLint scaled at 5 μM was 30 mL/min/kg.

Q: What about the half-life at 5 μM [2] of the same molecule?
A: The half-life at 5 μM was 82.7 min.

Q: Which half-life at 5 μM [1] does the source give for `Cc1cnc2ccc(Nc3ncc(Cl)c(NC4CCN(c5ccc(C#N)nn5)CC4)n3)cn12` [Example 13, 6-(4-((5-chloro-2-((3-methylimidazo[1,2-a]pyridin-6-yl)amino)pyrimidin-4-yl)amino)piperidin-1-yl)pyridazine-3-carbonitrile] here?
A: Its half-life at 5 μM is 21.8 min.

Q: And the CLint scaled at 5 μM [1]?
A: Its CLint scaled at 5 μM is 79.8 mL/min/kg.

Q: And the IC50 (JAK1 (h))?
A: The IC50 was 0.5 nM.

Q: And the CLint scaled at 5 μM [2]?
A: The CLint scaled at 5 μM was 23.3 mL/min/kg.

Q: What about the half-life at 5 μM [2] of the same molecule?
A: Its half-life at 5 μM is 107 min.

Q: Which half-life at 5 μM [1] does the source give for `CC(O)c1cnc2cc(Nc3ncc(Cl)c(NC4CCN(c5ccc(C#N)cn5)CC4)n3)ccn12` (stereo not shown) [Example 43, 6-(4-((5-chloro-2-((3-(1-hydroxyethyl)imidazo[1,2-a]pyridin-7-yl)amino)pyrimidin-4-yl)amino)piperidin-1-yl)nicotinonitrile] here?
A: Its half-life at 5 μM is 23.5 min.

Q: And the CLint scaled at 5 μM [1]?
A: Its CLint scaled at 5 μM is 74.1 mL/min/kg.

Q: And the IC50 (JAK1 (h))?
A: Its IC50 is less than 0.3 nM.

Q: What about the CLint scaled at 5 μM [2] of the same molecule?
A: Its CLint scaled at 5 μM is 57.5 mL/min/kg.

Q: And the half-life at 5 μM [2]?
A: Its half-life at 5 μM is 43.2 min.

Q: Which IC50 (JAK1 (h)) does the source give for `Cc1cnc2cc(Nc3ncc(Cl)c(NC4CCN(c5ccc(C#N)cn5)CC4)n3)cnn12` [Example 21, 6-(4-((5-chloro-2-((3-methylimidazo[1,2-b]pyridazin-7-yl)amino)pyrimidin-4-yl)amino)piperidin-1-yl)nicotinonitrile] here?
A: The IC50 was less than 0.3 nM.

Q: And the “Clearance (CL) after iv dosing” value ([3]; iv dosing, dose 1 mg/kg (Ex. 9: 0.6, Ex. 18: 0.5, Ex. 50: 0.96 mg/kg))?
A: The value was 11.8 mL/min/kg.

Q: What about the AUC(0-t) [3, 4] of the same molecule?
A: The AUC(0-t) was 1420 ng·h/mL.

Q: What about the half-life [3, 4] of the same molecule?
A: The half-life was 43.2 min.

Q: And the Vd ([3]; rat, plasma, iv dosing, dose 1 mg/kg (Ex. 9: 0.6, Ex. 18: 0.5, Ex. 50: 0.96 mg/kg), read-out: Vss)?
A: Its Vd is 0.84 L/kg.

Q: What about the bioavailability ([3]; rat, plasma, oral (generally 5 or 10 mg/kg) versus iv dosing, read-out: F (oral bioavailability)) of the same molecule?
A: The bioavailability was 37%.

Q: For `CC(C)(O)c1cn2ccc(Nc3ncc(Cl)c(NC4CCN(c5ccc(C#N)nn5)CC4)n3)cc2n1` [Example 71], which half-life at 5 μM [1] is on record?
A: The half-life at 5 μM was 18.9 min.

Q: What about the CLint scaled at 5 μM [1] of the same molecule?
A: Its CLint scaled at 5 μM is 91.8 mL/min/kg.

Q: And the IC50 (JAK1 (h))?
A: Its IC50 is 0.9 nM.

Q: What about the CLint scaled at 5 μM [2] of the same molecule?
A: The CLint scaled at 5 μM was 438 mL/min/kg.

Q: And the half-life at 5 μM [2]?
A: Its half-life at 5 μM is 5.67 min.

Q: For `CC(C)(F)c1nc2cc(Nc3ncc(Cl)c(NC4CCN(c5ccc(C#N)cn5)CC4)n3)ccn2n1` [Example 59, 6-(4-((5-chloro-2-((2-(2-fluoropropan-2-yl)-[1,2,4]triazolo[1,5-a]pyridin-7-yl)amino)pyrimidin-4-yl)amino)piperidin-1-yl)nicotinonitrile], which half-life at 5 μM [1] is on record?
A: Its half-life at 5 μM is 69.3 min.

Q: What about the CLint scaled at 5 μM [1] of the same molecule?
A: The CLint scaled at 5 μM was 25.1 mL/min/kg.

Q: What about the IC50 (JAK1 (h)) of the same molecule?
A: The IC50 was 0.7 nM.

Q: What about the CLint scaled at 5 μM [2] of the same molecule?
A: Its CLint scaled at 5 μM is 86.8 mL/min/kg.

Q: What about the half-life at 5 μM [2] of the same molecule?
A: Its half-life at 5 μM is 28.6 min.

Q: What does the source list for `N#Cc1ccc(N2CCC(Nc3nc(Nc4ccn5c(C6CC6)cnc5c4)ncc3Cl)CC2)nn1` [Example 14, 6-(4-((5-chloro-2-((3-cyclopropylimidazo[1,2-a]pyridin-7-yl)amino)pyrimidin-4-yl)amino)piperidin-1-yl)pyridazine-3-carbonitrile]?
A: half-life at 5 μM [1]: 26.1 min; CLint scaled at 5 μM [1]: 66.7 mL/min/kg; IC50 (JAK1 (h)): 3 nM; CLint scaled at 5 μM [2]: 232 mL/min/kg; half-life at 5 μM [2]: 10.7 min

Q: With `CC(C)(O)Cn1cnc2cc(Nc3ncc(Cl)c(NC4CCN(c5ccc(C#N)cn5)CC4)n3)ccc21` [Example 64, 6-(4-((5-chloro-2-((1-(2-hydroxy-2-methylpropyl)-1H-benzo[d]imidazol-5-yl)amino)pyrimidin-4-yl)amino)piperidin-1-yl)nicotinonitrile] as the molecule, how does the half-life at 5 μM [1] read?
A: Its half-life at 5 μM is 40.3 min.

Q: And the CLint scaled at 5 μM [1]?
A: Its CLint scaled at 5 μM is 43.2 mL/min/kg.

Q: And the IC50 (JAK1 (h))?
A: The IC50 was 0.5 nM.

Q: And the CLint scaled at 5 μM [2]?
A: Its CLint scaled at 5 μM is 249 mL/min/kg.

Q: And the half-life at 5 μM [2]?
A: The half-life at 5 μM was 10 min.
